Patent US11266626B2, “Reduction of ER-MAM-localized APP-C99 and methods of treating alzheimer's disease” (THE TRUSTEES OF COLUMBIA UNIVERSITY IN THE CITY OF NEW YORK, priority 2015, dated 2022)
Entries after “also recorded” stand apart in the source; their conditions may differ.

How the values were obtained:
ACAT1 = test: ACAT activity assay (conversion of 3H-cholesterol to cholesteryl esters); type: cell-based, mouse; settings: PS-DKO cells; 100 nM BI, 12-16 h
Procedure: To measure cholesterol uptake in vivo, cultured cells were incubated in serum-free medium for 2 h to remove all exogenous lipids. After that, 2.5 μCi/ml of 3H-cholesterol was added to FBS-free DMEM containing 2% FAF-BSA, allowed to equilibrate for at least 30 min at 37° C., and the radiolabeled medium was added to the cells for the indicated periods of time. Cells were then washed and collected in DPBS, removing a small aliquot for protein quantification. Lipids were extracted in 3 volumes of chloroform:methanol (2:1 v/v). After vortexing and centrifugation at 8000×g for 5 min, the organic phase was blown to dryness under nitrogen. […] Iodine-stained bands corresponding to cholesterol and cholesteryl esters were scraped and counted.
(§1) To measure cholesterol esterification in vivo, cultured cells were incubated in serum-free medium for 2 h to remove all exogenous lipids. […] Cells were then washed and collected in DPBS, removing a small aliquot for protein quantification. […] Iodine-stained bands corresponding to cholesterol and cholesteryl esters were scraped and counted.
as §1

[1] = system: acid (aSMase) and neutral (nSMase) sphingomyelinases; test: Analysis of sphingomyelinase activity; type: cell-based, mouse; settings: PS-DKO MEFs; BI 100 nM; Aβ40:Aβ42 10:1, 6 ng/ml total
Procedure: One hundred μg of protein were assayed in 100 mM of the appropriate buffer (Tris/glycine for pH 7.0-9.0 and sodium acetate for pH 4.0-5.0), 1.55 mM Triton X-100, 0.025% BSA, 1 mM MgCl2, and 400 μM bovine brain sphingomyelin spiked with 22000 dpm of [3H]-bovine sphingomyelin ([…]). Reactions were carried out in borosilicate glass culture tubes at 37° C., overnight, followed by quenching with 1.2 ml of ice-cold 10% trichloroacetic acid, incubation at 4° C. for 30 min, and centrifugation at 2000 rpm at 4° C. for 20 min. One ml of supernatant was transferred to clean tubes, 1 ml of ether was added, the mixture vortexed, and centrifuged at 2000 rpm for 5 min. Eight hundred μl of the bottom phase was transferred to scintillation vials, 5 ml of Scintiverse BD (Fisher Scientific, Fair Lawn, N.J.) was added, and samples were counted. […]
Reactions were carried out in borosilicate glass culture tubes at 37° C., overnight, followed by quenching with 1.2 ml of ice-cold 10% trichloroacetic acid, incubation at 4° C. for 30 min, and centrifugation at 2000 rpm at 4° C. for 20 min. […] Eight hundred μl of the bottom phase was transferred to scintillation vials, 5 ml of Scintiverse BD (Fisher Scientific, Fair Lawn, N.J.) was added, and samples were counted. […]

APP C-terminal fragments = test: Western blot of APP C-terminal fragments in total homogenates; type: cell-based, mouse; settings: PS-DKO MEFs total homogenates; BI
Procedure: Purification of ER, MAM, and mitochondria was performed and analyzed as described (4).
Purification of ER, MAM, and mitochondria was performed and analyzed as described Area-Gomez et al., 2009, the contents of which is hereby incorporated by reference in its entirety.
Purification of ER, MAM, and mitochondria was performed and analyzed as described (Area-Gomez et al, 2009). For C99 detection, samples were run in 4-12% Bis-Tris gels (Criterion XT Precast Midi Gels, BioRad) in XT MES buffer.

HeLa cells = test: Staining of lipid droplets with LipidTox Green; type: cell-based, human; settings: DAPT 10 μM alone or with BI 100 nM
Procedure: Staining of lipid droplets was performed using HCS LipidTox™ Deep Green neutral lipid stain (Invitrogen H34475) according to the manufacturer's instructions. Lipid droplet staining was quantified using ImageJ. The different values represent the product of the intensity and the area covered by the fluorescent signal above background in every cell examined.

With `C[C@@H](NC(=O)c1cc(C(=O)N[C@@H](Cc2ccccc2)[C@H](O)CNC2CC2)cc(N(C)S(C)(=O)=O)c1)c1ccccc1` [BI, β-secretase inhibitor IV] the “incorporation of radiolabeled cholesterol into cholesteryl esters (ACAT1 activity)” value (ACAT1) was “reduced significantly the incorporation of radiolabeled cholesterol into cholesterol esters; also recorded: reduced the incorporation of cholesterol into cholesteryl esters”, the “acid (aSMase) and neutral (nSMase) sphingomyelinase activity / sphingolipid turnover” value [1] was “reduced significantly; also recorded: attenuation of sphingolipid turnover; also recorded: attenuation of sphingolipid synthesis and hydrolysis by sphingomyelinases” and the “accumulation of APP C-terminal fragments” value (APP C-terminal fragments) was “eliminates the accumulation of APP C-terminal fragments”.

`C[C@H](NC(=O)Cc1cc(F)cc(F)c1)C(=O)N[C@H](C(=O)OC(C)(C)C)c1ccccc1` [DAPT] was tested, and the “accumulation of lipid droplets (LDs)” value (HeLa cells) was “LDs also accumulated; also recorded: Lipid droplets also accumulated”.
